Measurements published in patent US9199946B2, “Pyrimidinone carboxamide inhibitors of endothelial lipase” (BRISTOL-MYERS SQUIBB COMPANY, priority 2012, dated 2015).
Read-outs that look alike come from different tables or passages of the source.

Target: T1, Endothelial lipase (EL) (Homo sapiens, UniProt Q9Y5X9)
T1 construct: HT-1080 cells, which were transformed by RAGE technology (Athersys) to overexpress endogenous EL; endogenous in cells; conditioned medium used as the enzyme source
T1 sequence (Q9Y5X9 21-500): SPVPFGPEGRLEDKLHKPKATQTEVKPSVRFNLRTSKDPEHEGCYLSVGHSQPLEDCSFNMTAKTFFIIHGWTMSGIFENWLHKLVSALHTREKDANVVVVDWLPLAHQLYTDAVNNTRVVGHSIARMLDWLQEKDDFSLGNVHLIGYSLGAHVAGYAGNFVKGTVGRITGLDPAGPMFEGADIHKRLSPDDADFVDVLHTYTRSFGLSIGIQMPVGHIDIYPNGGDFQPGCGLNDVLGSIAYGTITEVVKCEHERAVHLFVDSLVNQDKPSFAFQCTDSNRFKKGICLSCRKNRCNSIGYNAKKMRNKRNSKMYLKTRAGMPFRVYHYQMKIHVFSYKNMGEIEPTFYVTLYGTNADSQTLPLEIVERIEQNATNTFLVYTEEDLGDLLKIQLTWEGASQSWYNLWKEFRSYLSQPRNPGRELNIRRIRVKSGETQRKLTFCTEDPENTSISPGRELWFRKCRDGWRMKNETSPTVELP
Assay: Endothelial lipase (EL) enzymatic assay with fluorescent substrate A10070 in DMPG vesicles
Format: biochemical
Summary of the method: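 The enzyme source was conditioned medium from HT-1080 cells engineered to overexpress endogenous EL. It was preincubated with compound for 20 min at 37 °C in 50 mM HEPES pH 8.0, 50 mM NaCl, 1 mM CaCl2. Reactions started with DMPG vesicles carrying FRET substrate A10070 (mole fraction 0.05). The rate was taken from the linear slope of fluorescence (ex 488/em 530 nm) over 10 min.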

[1] = range observed in the EL assay, read-out: EL IC50 values
[2] = conditioned media from HT-1080 cells overexpressing endogenous EL, 20 min preincubation at 37° C., read-out: EL IC50

| IC50 [1] [µM] | IC50 [2] [µM] | Structure (SMILES) |
| --- | --- | --- |
| ≤ 10 |  | O=C(N[C@H]1CC[C@@H](c2ccccc2)C1)c1[nH]c(=O)[nH]c(=O)c1O [Example 273, 5-hydroxy-2,6-dioxo-N-((1S,3R)-3-phenylcyclopentyl)-1,2,3,6-tetrahydropyrimidine-4-carboxamide] |
| ≤ 10 |  | COC(=O)[C@@H]1C[C@@H](NC(=O)c2[nH]c(=O)[nH]c(=O)c2N)c2ccccc2[C@H]1c1ccccc1 [Example 23, (1R,2R,4R)-methyl 4-(5-amino-2,6-dioxo-1,2,3,6-tetrahydropyrimidine-4-carboxamido)-1-phenyl-1,2,3,4-tetrahydronaphthalene-2-carboxylate] |
| ≤ 10 |  | Nc1c(C(=O)N[C@H]2CC[C@@H](c3ccccc3)CC2)[nH]c(=O)[nH]c1=O [Example 3, 5-amino-2,6-dioxo-N-(cis-4-phenylcyclohexyl)-1,2,3,6-tetrahydropyrimidine-4-carboxamide] |
| ≤ 10 |  | Nc1c(C(=O)NC2CCCCC2C2CCCCC2)[nH]c(=O)[nH]c1=O (stereo not shown) [Example 59, 5-amino-N-(bi(cyclohexan)-2-yl)-2,6-dioxo-1,2,3,6-tetrahydropyrimidine-4-carboxamide] |
| ≤ 10 | 1.91 | Nc1c(C(=O)NC2CC=C(c3ccc(F)c(F)c3)CC2)[nH]c(=O)[nH]c1=O (stereo not shown) [Example 202, 5-Amino-N-(4-(3,4-difluorophenyl)cyclohex-3-enyl)-2,6-dioxo-1,2,3,6-tetrahydropyrimidine-4-carboxamide] |
|  | 13 | Nc1c(C(=O)N[C@H]2CCc3ccc(C(F)(F)F)cc32)[nH]c(=O)[nH]c1=O [Example 15, (S)-5-amino-2,6-dioxo-N-(6-(trifluoromethyl)-2,3-dihydro-1H-inden-1-yl)-1,2,3,6-tetrahydropyrimidine-4-carboxamide] |
| ≤ 10 |  | CCOC(=O)Cn1cc(-c2ccc([C@@H]3CC[C@H](NC(=O)c4[nH]c(=O)[nH]c(=O)c4N)C3)cc2)cn1 [Example 160, ethyl 2-(4-(4-((1R,3S)-3-(5-amino 2,6-dioxo-1,2,3,6-tetrahydropyrimidine-4-carboxamido)cyclopentyl)phenyl) 1H-pyrazol-1-yl)acetate] |
| ≤ 10 |  | O=C(N[C@H]1CC[C@@H](c2ccccc2)CC1)c1[nH]c(=O)[nH]c(=O)c1NCCc1c[nH]cn1 [Example 213, 5-(2-(1H-imidazol-4-yl)ethylamino)-2,6-dioxo-N-(cis-4-phenylcyclohexyl)-1,2,3,6-tetrahydropyrimidine-4-carboxamide] |
| ≤ 10 |  | Nc1c(C(=O)NC2CCC(c3ccc(OCc4ccccc4)cc3)C2)[nH]c(=O)[nH]c1=O (single isomer, unassigned) [Example 151, 5-amino-N-(3-(4-(benzyloxy)phenyl)cyclopentyl)-2,6-dioxo-1,2,3,6-tetrahydropyrimidine-4-carboxamide] |
| ≤ 10 |  | Nc1c(C(=O)N[C@H]2CCCc3ccccc32)[nH]c(=O)[nH]c1=O [Example 10, (S)-5-amino-2,6-dioxo-N-(1,2,3,4-tetrahydronaphthalen-1-yl)-1,2,3,6-tetrahydropyrimidine-4-carboxamide] |
| ≤ 10 |  | CCOC(=O)N1CCC(NC(=O)c2[nH]c(=O)[nH]c(=O)c2N)c2ccccc21 (single isomer, unassigned; enantiomer b) [Example 193, Ethyl 4-(5-amino-2,6-dioxo-1,2,3,6-tetrahydropyrimidine-4-carboxamido)-3,4-dihydroquinoline-1(2H)-carboxylate (Enantiomer B)] |
| ≤ 10 |  | Nc1c(C(=O)NC2CCC(c3ccccc3)CC2)[nH]c(=O)[nH]c1=O (stereo not shown) [Example 2, 5-amino-2,6-dioxo-N-(4-phenylcyclohexyl)-1,2,3,6-tetrahydropyrimidine-4-carboxamide] |
| ≤ 10 | 0.439 | CC(C)(O)CNc1c(C(=O)N[C@H]2CC[C@@H](c3ccccc3)CC2)[nH]c(=O)[nH]c1=O [Example 234, 5-(2-hydroxy-2-methylpropylamino)-2,6-dioxo-N-(cis-4-phenylcyclohexyl)-1,2,3,6-tetrahydropyrimidine-4-carboxamide] |
| ≤ 10 |  | Nc1c(C(=O)N[C@@H]2CCCc3ccccc32)[nH]c(=O)[nH]c1=O [Example 13, (R)-5-amino-2,6-dioxo-N-(1,2,3,4-tetrahydronaphthalen-1-yl)-1,2,3,6-tetrahydropyrimidine-4-carboxamide] |
| ≤ 10 |  | O=C(N[C@@H]1CCc2ccc(C(F)(F)F)cc21)c1[nH]c(=O)[nH]c(=O)c1O [Example 248, (R)-5-hydroxy-2,6-dioxo-N-(6-(trifluoromethyl)-2,3-dihydro-1H-inden-1-yl)-1,2,3,6-tetrahydropyrimidine-4-carboxamide] |
| ≤ 10 | 6.22 | Nc1c(C(=O)N[C@H]2CC[C@@H](c3ccccc3)CC2)n(-c2cc(F)cc(C(F)(F)F)c2)c(=O)[nH]c1=O [Example 203, 5-Amino-3-(3-fluoro-5-(trifluoromethyl)phenyl)-2,6-dioxo-N-(cis-4-phenylcyclohexyl)-1,2,3,6-tetrahydropyrimidine-4-carboxamide] |
| ≤ 10 |  | Nc1c(C(=O)NC2CCC(n3cc(-c4ccc(Br)cc4)cn3)C2)[nH]c(=O)[nH]c1=O (stereo not shown) [Example 140, 5-amino-N-(3-(4-(4-bromophenyl)-1H-pyrazol-1-yl)cyclopentyl)-2,6-dioxo-1,2,3,6-tetrahydropyrimidine-4-carboxamide] |
| ≤ 10 |  | O=C(N[C@H]1CC[C@@H](c2ccccc2)CC1)c1[nH]c(=O)[nH]c(=O)c1NCc1cccc(C(F)(F)F)c1 [Example 222, 2,6-dioxo-N-(cis-4-phenylcyclohexyl)-5-(3-(trifluoromethyl)benzylamino)-1,2,3,6-tetrahydropyrimidine-4-carboxamide] |
| ≤ 10 |  | Nc1c(C(=O)N[C@H]2CC[C@@H](c3ccc(-c4ccccc4CO)cc3)C2)[nH]c(=O)[nH]c1=O [Example 174, 5-amino-N-((1S,3R)-3-(2′-(hydroxymethyl)biphenyl-4-yl)cyclopentyl)-2,6-dioxo-1,2,3,6-tetrahydropyrimidine-4-carboxamide] |
| ≤ 10 |  | O=C(NC1CCCc2c(-c3ccccc3)cccc21)c1[nH]c(=O)[nH]c(=O)c1O (stereo not shown) [Example 285, 5-hydroxy-2,6-dioxo-N-(5-phenyl-1,2,3,4-tetrahydronaphthalen-1-yl)-1,2,3,6-tetrahydropyrimidine-4-carboxamide] |
| ≤ 10 |  | Nc1c(C(=O)N[C@@H]2CC[C@H](C(=O)Nc3ccccc3)C2)[nH]c(=O)[nH]c1=O [Example 130, 5-amino-2,6-dioxo-N-((1R,3S)-3-(phenylcarbamoyl)cyclopentyl)-1,2,3,6-tetrahydropyrimidine-4-carboxamide] |
| ≤ 10 |  | O=C(N[C@H]1C[C@@H](c2ccccc2)c2ccccc21)c1[nH]c(=O)[nH]c(=O)c1O [Example 247, 5-hydroxy-2,6-dioxo-N-((1S,3S)-3-phenyl-2,3-dihydro-1H-inden-1-yl)-1,2,3,6-tetrahydropyrimidine-4-carboxamide] |
| ≤ 10 | 3.68 | Nc1c(C(=O)NC2CCC(NC(=O)Cc3nc4ccc(-c5ccccc5)cc4s3)C2)[nH]c(=O)[nH]c1=O (stereo not shown) [Example 135, 5-amino-2,6-dioxo-N-(3-(2-(6-phenylbenzo[d]thiazol-2-yl)acetamido)cyclopentyl)-1,2,3,6-tetrahydropyrimidine-4-carboxamide] |
| ≤ 10 |  | Nc1c(C(=O)N[C@H]2CCCc3c2cccc3C(F)(F)F)[nH]c(=O)[nH]c1=O [Example 50, (S)-5-amino-2,6-dioxo-N-(5-(trifluoromethyl)-1,2,3,4-tetrahydronaphthalen-1-yl)-1,2,3,6-tetrahydropyrimidine-4-carboxamide] |
| ≤ 10 | 0.024 | CCn1c(=O)c(O)c(C(=O)N[C@H]2CC[C@@H](c3ccccc3)CC2)n(Cc2ccccc2)c1=O [Example 240, 3-Benzyl-1-ethyl-5-hydroxy-2,6-dioxo-N-(cis-4-phenylcyclohexyl)-1,2,3,6-tetrahydropyrimidine-4-carboxamide] |
| ≤ 10 |  | CC(C)CCNc1c(C(=O)N[C@H]2CC[C@@H](c3ccccc3)CC2)[nH]c(=O)[nH]c1=O [Example 210, 5-(isopentylamino)-2,6-dioxo-N-(cis-4-phenylcyclohexyl)-1,2,3,6-tetrahydropyrimidine-4-carboxamide] |
| ≤ 10 |  | Nc1c(C(=O)N[C@@H]2CC[C@H](c3ccccc3)C2)[nH]c(=O)[nH]c1=O [Example 75, 5-amino-2,6-dioxo-N-((1R,3S)-3-phenylcyclopentyl)-1,2,3,6-tetrahydropyrimidine-4-carboxamide] |
| ≤ 10 |  | Cc1ccc(-c2ccc([C@@H]3CC[C@H](NC(=O)c4[nH]c(=O)[nH]c(=O)c4N)C3)cc2)cc1 [Example 169, 5-amino-N-((1S,3R)-3-(4′-methylbiphenyl-4-yl)cyclopentyl)-2,6-dioxo-1,2,3,6-tetrahydropyrimidine-4-carboxamide] |
| ≤ 10 |  | O=C(N[C@H]1CC[C@@H](c2ccccc2)CC1)c1[nH]c(=O)n(CCO)c(=O)c1O [Example 269, 5-Hydroxy-1-(2-hydroxyethyl)-2,6-dioxo-N-(cis-4-phenylcyclohexyl)-1,2,3,6-tetrahydropyrimidine-4-carboxamide] |
